# According to ChEMBL document CHEMBL1201862, “PubChem BioAssay data set” (2004):
# The source made the active and inactive calls.
# Experiments:
# Cytochrome P450 2C19 = Cytochrome P450 2C19 (Homo sapiens, UniProt P33261); experiment: qHTS Assay for Inhibitors and Substrates of Cytochrome P450 2C19. [Related pubchem assays: 410 ]; assay type: ADME; conditions: read-out: Potency
# Cytochrome P450 3A4 = Cytochrome P450 3A4 (Homo sapiens, UniProt P08684); conditions: Potency;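 further: confirmatory qHTS run detecting inhibitors and substrates of CYP3A4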
# Genome polyprotein = Genome polyprotein (Hepatitis C virus, UniProt Q2Q167); experiment: HCV core protein dimerization inhibitors, dose response, biochemical, TR-FRET (AID 2159); design: species or system Hepacivirus hominis;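 further: blocks dimerization of HCV core protein measured by TR-FRET between tagged core106 pairs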
# [1] = target: T1, Probable nicotinate-nucleotide adenylyltransferase (Staphylococcus aureus (strain N315), UniProt P65502); assay type: functional, Staphylococcus aureus subsp. aureus N315; conditions: read-out: IC50_Mean;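 on IC50 Mean: confirmatory dose-response retesting of NadD inhibitor hits first found in an ultra-high-throughput screen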
# [2] = target: T1, Probable nicotinate-nucleotide adenylyltransferase; assay type: functional, Staphylococcus aureus subsp. aureus N315
# Vero = Vero cell cytotoxicity, cytotoxicity control for flavivirus capping enzyme inhibitors (AID 588742); assay type: functional; conditions: Chlorocebus sabaeus
# [3] = target: Voltage-gated inwardly rectifying potassium channel KCNH2 (Homo sapiens, UniProt Q12809); experiment: hERG protection from proarrhythmic block, potency, dose response, cell-based, thallium flux (AID 2121); assay type: ADME
# [4] = Counterscreen for activators of the function of SWI/SNF related, matrix associated, actin dependent regulator of chromatin, subfamily a, member 2 (SMARCA2, BRM): Luminescence-based cell-based high throughput dose response assay to identify non-selective compounds using the VP16 reporter assay.; assay type: functional
# [5] = target: SWI/SNF-related matrix-associated actin-dependent regulator of chromatin subfamily A member 2 (Homo sapiens, UniProt P51531); experiment: Luminescence-based cell-based high throughput dose response assay to identify activators of the function of SWI/SNF related, matrix associated, actin dependent regulator of chromatin, subfamily a, member 2 (SMARCA2, BRM).; assay type: functional
# [6] = non-specific cell cytotoxicity, dose response, cytotoxicity control for PAX8 inhibitor project, plate reader, dry powder samples (AID 743021); assay type: functional, cell-based
# [7] = microbe, parasite or virus in culture; assay type: functional; conditions: Mycobacterium tuberculosis
# [8] = Luminescent dose response cell-based high throughput screening assay for inhibitors of the Janus kinase 2 mutant JAK2V617F. [Related pubchem assays: 1446 (Primary screen.), 1521 (Confirmation assay.), 1486 (Counter screen.)]; assay type: functional
# Jurkat = experiment: antigen receptor-induced NF-kB inhibitors, dose response, Jurkat, luciferase reporter, luminescence, B- and T-cell (AID 489004); assay type: functional, cell-based; conditions: Homo sapiens;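 further: NF-kB luciferase reporter Jurkat cells stimulated with PMA plus ionomycin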
# Paired box protein Pax-8 = Paired box protein Pax-8 (Homo sapiens, UniProt Q06710); experiment: inhibitors of PAX8-driven TPO luciferase reporter, dose response, RMG-I cells, cherry-pick (AID 687027); assay type: functional, cell-based;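 further: luciferase reporter driven by Pax8 target thyroperoxidase promoter measured by SteadyGlo luminescence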
# [9] = cytotoxicity in HEK-293T NF-kB-Luc cells, dose response, cytotoxicity control for B/T-cell NF-kB inhibitor project, cell-based, uHTS hits (AID 489019); assay type: functional;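 further: IC50 reflects cytotoxicity as loss of cell viability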
# [10] = target: Photoreceptor-specific nuclear receptor (Homo sapiens, UniProt Q9Y5X4); experiment: NR2E3 inverse agonists, dose response, biochemical, TR-FRET (AID 463256); assay type: functional
# [11] = target: Peroxisome proliferator-activated receptor gamma/Nuclear receptor corepressor 2 (Homo sapiens, UniProt P37231+Q9Y618); experiment: Counterscreen for NR2E3 inverse agonists: TR-FRET-based biochemical high throughput dose response assay to identify inverse agonists of the interaction between peroxisome proliferator-activated receptor gamma (PPARg) and nuclear receptor co-repressor 2 (NCOR2).; assay type: functional
# 14-3-3 protein gamma = 14-3-3 protein gamma (Homo sapiens, UniProt P61981); experiment: modulators of 14-3-3 gamma client binding – dose response (AID 711); assay type: functional
# [12] = target: Ubiquitin carboxyl-terminal hydrolase BAP1 (Homo sapiens, UniProt Q92560); experiment: BAP1 deubiquitinase inhibitors, dose response, biochemical (AID 714); assay type: functional
# Bcl-2-related protein A1 [13] = target: T2, Bcl-2-related protein A1 (Mus musculus, UniProt Q07440); experiment: Bfl-1 inhibitors blocking BH3 peptide binding, confirmation, biochemical, TR-FRET, mouse Bfl-1 (AID 621);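 further: TR-FRET binding of GST-Bfl-1 to FITC-labelled Bid peptide via terbium antibody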
# T2 sequence (Q07440 whole entry): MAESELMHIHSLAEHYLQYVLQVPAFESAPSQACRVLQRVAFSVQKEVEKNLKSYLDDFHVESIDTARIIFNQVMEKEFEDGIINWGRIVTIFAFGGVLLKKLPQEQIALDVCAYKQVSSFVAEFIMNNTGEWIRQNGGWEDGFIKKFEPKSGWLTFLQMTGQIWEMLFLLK
# [14] = target: T3, Replicative DNA helicase DnaB (Mycobacterium tuberculosis, UniProt P9WMR3); experiment: DnaB intein splicing inhibitors, dose response, biochemical, cell-free fluorescence (AID 449749); assay type: functional
# T3 sequence (P9WMR3 whole entry): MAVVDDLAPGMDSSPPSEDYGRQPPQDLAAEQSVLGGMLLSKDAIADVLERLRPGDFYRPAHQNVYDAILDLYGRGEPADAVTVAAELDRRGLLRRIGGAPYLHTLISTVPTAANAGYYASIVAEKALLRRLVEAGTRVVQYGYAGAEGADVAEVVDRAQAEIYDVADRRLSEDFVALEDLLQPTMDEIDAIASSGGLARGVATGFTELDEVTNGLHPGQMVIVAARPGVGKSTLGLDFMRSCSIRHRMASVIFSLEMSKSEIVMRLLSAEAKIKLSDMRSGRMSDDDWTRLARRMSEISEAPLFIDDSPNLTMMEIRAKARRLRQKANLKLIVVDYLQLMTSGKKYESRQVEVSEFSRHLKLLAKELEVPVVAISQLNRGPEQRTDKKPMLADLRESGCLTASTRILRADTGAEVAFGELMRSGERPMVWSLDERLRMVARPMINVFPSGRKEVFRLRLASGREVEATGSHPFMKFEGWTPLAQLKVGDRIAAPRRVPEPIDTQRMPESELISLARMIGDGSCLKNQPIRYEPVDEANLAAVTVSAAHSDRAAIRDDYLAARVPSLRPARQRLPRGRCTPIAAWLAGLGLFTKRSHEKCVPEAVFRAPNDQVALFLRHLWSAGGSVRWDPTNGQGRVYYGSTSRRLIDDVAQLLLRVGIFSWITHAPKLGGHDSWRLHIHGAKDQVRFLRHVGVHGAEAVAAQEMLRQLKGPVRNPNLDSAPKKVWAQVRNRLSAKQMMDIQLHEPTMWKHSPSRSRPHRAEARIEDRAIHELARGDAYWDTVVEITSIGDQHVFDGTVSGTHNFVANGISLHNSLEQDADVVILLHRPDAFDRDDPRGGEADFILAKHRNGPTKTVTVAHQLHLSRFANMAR
# SUMO-activating enzyme [15] = target: T4, SUMO-activating enzyme (Homo sapiens, UniProt Q9UBT2); experiment: SUMOylation inhibitor hit validation, confirmation, SUMOylation inhibitor project, biochemical, AlphaScreen (AID 2018); assay type: functional
# SUMO-activating enzyme [16] = target: T4, SUMO-activating enzyme; experiment: inhibitors of in vitro SUMOylation cascade, primary screen, biochemical, HTRF, uHTS (AID 2006); assay type: protein-complex assay
# fMet-Leu-Phe receptor = fMet-Leu-Phe receptor (Homo sapiens, UniProt P21462); experiment: FPR ligands, dose response (AID 519); assay type: functional
# Bcl-2-related protein A1 [17] = target: T2, Bcl-2-related protein A1; experiment: Bfl-1 inhibitors, primary screen, biochemical, fluorescence polarization, FITC-Bid, mouse (AID 432)
# Protein RecA = target: T5, Protein RecA (Mycobacterium tuberculosis, UniProt P9WHJ3); experiment: Fluorescence Cell-Free Homogeneous Dose Retest to Identify Inhibitors of RecA-Intein Splicing Activity. [Related pubchem assays (depositor defined):AID2097, AID2223, AID489010, AID492950]; assay type: functional
# T5 sequence (P9WHJ3 whole entry): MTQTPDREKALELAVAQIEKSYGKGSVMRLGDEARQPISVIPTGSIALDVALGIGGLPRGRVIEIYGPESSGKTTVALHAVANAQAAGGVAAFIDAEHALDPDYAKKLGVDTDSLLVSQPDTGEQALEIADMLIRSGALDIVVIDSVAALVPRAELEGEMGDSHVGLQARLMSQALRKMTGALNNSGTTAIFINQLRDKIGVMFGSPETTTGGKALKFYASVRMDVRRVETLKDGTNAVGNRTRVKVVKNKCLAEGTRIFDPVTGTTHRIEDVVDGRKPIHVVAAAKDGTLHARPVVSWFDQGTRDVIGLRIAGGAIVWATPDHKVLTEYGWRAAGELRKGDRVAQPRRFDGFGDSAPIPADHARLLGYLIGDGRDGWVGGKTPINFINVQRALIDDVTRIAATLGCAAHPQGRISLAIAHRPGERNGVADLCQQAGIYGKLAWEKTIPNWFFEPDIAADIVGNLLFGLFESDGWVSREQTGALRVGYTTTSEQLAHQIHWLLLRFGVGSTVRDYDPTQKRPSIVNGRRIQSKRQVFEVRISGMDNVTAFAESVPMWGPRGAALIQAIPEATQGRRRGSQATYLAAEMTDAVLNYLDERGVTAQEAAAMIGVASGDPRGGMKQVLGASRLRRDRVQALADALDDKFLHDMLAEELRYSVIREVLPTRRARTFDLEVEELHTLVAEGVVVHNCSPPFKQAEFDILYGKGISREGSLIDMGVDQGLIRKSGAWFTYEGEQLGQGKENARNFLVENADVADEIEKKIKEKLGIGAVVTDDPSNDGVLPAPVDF
# [18] = CellTiter-Glo luminescent dose response of DLD-1 viability loss (AID 1117352); assay type: functional
# [19] = HeLa 4N DNA content increase, dose response, cell-based, IC50 (AID 1117351); assay type: functional
# [20] = cytotoxicity toward HT-29 cells – cell-based, CellTiter-Glo luminescence, IC50, dose response (AID 1117330); assay type: functional
# [21] = HeLa 2N DNA content increase, dose response, cell-based, IC50 (AID 1117349); assay type: functional
# [22] = Concentration-dependent survival of SW480 colon cancer line, luminescence detection with CellTiter-Glo, half-maximal inhibitory concentration (AID 1117338); assay type: functional
# [23] = HCT116 cell viability decrease, GSK3B pretreatment – CellTiter-Glo, IC50, dose response (AID 1117339); assay type: functional; conditions: HCT-116
# [24] = cytotoxicity toward HCT116 cells – cell-based, CellTiter-Glo luminescence, IC50, dose response (AID 1117332); assay type: functional; conditions: HCT-116
# [25] = cytotoxicity toward Colo320 cells – cell-based, CellTiter-Glo luminescence, IC50, dose response (AID 1117334); assay type: functional; conditions: COLO 320
# [26] = RKO cell viability reduction, dose response, CellTiter-Glo luminescence (AID 1117322); assay type: functional
# [27] = SNU-C1 cell viability reduction, dose response, CellTiter-Glo luminescence (AID 1117323); assay type: functional, cell-based
# [28] = target: T6, Tyrosine-protein phosphatase non-receptor type 7 (Homo sapiens, UniProt P35236); experiment: inhibitors of human HePTP phosphatase, […], biochemical, absorbance, leukemia target (AID 521); assay type: functional
# T6 sequence (P35236 whole entry): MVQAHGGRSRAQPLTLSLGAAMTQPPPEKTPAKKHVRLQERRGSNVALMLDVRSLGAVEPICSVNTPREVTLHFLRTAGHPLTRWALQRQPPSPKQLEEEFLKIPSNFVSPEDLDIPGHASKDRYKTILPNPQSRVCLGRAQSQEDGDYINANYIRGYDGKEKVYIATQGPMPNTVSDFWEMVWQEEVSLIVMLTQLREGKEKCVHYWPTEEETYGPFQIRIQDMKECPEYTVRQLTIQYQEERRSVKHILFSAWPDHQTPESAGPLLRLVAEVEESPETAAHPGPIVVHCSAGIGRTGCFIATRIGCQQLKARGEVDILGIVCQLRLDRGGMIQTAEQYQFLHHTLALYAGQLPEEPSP
# T4 sequence (Q9UBE0 whole entry): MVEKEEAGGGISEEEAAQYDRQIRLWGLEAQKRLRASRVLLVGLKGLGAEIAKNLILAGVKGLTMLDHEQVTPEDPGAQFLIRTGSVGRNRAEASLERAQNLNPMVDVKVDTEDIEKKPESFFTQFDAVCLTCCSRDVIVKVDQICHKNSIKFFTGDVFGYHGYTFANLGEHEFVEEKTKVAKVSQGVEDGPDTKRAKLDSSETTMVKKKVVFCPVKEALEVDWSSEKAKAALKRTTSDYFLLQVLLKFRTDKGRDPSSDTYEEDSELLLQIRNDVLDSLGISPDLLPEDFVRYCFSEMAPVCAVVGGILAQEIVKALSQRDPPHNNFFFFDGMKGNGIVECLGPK
# T4 sequence (Q9UBT2 whole entry): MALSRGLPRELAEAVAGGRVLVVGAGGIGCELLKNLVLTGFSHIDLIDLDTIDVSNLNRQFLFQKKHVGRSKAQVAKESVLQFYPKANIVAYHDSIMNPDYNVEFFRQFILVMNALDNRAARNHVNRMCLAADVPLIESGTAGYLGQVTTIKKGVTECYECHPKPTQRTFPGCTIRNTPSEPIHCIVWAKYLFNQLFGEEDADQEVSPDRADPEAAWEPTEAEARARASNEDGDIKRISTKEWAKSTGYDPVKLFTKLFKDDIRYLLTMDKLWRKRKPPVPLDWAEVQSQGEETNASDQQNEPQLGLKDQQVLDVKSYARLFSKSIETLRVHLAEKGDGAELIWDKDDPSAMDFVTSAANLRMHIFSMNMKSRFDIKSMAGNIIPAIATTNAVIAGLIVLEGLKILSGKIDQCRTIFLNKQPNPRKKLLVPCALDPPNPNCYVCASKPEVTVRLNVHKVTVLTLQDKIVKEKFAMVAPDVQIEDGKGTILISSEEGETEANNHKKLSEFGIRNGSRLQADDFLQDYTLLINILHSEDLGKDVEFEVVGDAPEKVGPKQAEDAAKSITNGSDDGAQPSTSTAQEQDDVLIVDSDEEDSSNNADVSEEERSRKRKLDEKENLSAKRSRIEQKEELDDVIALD
# T1 sequence (P65502 whole entry): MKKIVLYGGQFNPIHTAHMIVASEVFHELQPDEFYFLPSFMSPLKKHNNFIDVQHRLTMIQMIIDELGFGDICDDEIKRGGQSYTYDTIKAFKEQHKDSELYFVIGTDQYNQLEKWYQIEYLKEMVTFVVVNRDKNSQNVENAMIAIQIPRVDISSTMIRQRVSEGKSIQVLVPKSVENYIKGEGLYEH
# Sequence of Voltage-gated inwardly rectifying potassium channel KCNH2 (Q12809 whole entry): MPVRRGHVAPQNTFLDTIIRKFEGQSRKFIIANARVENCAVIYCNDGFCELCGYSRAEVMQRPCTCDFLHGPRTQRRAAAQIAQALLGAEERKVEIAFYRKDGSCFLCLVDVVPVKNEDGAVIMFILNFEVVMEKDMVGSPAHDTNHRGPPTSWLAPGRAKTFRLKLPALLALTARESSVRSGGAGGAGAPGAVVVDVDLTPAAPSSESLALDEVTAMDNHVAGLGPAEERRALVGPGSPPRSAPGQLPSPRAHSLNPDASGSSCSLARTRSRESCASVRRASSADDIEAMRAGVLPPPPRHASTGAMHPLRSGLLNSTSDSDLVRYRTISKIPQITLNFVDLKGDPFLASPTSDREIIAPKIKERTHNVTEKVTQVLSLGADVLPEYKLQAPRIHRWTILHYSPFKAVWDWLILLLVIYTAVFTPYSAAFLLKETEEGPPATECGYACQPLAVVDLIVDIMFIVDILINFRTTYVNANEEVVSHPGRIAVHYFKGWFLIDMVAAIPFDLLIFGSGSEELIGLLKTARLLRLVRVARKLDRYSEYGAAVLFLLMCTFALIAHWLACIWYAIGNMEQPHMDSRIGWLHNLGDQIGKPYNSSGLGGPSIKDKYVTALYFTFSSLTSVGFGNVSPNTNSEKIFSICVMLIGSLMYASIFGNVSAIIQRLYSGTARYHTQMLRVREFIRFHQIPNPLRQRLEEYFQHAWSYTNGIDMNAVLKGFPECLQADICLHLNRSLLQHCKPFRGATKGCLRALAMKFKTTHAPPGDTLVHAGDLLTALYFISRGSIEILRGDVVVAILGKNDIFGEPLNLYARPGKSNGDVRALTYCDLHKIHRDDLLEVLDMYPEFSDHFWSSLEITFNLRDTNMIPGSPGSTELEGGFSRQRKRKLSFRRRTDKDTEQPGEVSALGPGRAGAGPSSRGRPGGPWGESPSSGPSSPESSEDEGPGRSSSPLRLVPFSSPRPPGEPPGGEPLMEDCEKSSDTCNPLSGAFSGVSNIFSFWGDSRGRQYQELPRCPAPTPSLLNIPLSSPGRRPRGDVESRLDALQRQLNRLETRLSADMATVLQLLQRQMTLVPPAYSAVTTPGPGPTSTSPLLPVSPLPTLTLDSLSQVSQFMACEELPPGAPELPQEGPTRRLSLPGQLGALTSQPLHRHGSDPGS
# Sequence of Photoreceptor-specific nuclear receptor (Q9Y5X4 whole entry): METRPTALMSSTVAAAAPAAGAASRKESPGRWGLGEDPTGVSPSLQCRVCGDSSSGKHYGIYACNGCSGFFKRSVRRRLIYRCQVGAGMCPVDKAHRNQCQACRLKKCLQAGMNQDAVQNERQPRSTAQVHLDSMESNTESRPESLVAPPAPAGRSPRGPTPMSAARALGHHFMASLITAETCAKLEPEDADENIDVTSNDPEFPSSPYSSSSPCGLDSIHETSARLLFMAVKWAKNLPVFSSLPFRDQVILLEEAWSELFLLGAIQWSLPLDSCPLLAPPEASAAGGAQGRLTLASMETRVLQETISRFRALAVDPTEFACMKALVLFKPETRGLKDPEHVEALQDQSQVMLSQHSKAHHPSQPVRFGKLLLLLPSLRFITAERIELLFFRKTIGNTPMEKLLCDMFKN
# Sequence of Paired box protein Pax-8 (Q06710 whole entry): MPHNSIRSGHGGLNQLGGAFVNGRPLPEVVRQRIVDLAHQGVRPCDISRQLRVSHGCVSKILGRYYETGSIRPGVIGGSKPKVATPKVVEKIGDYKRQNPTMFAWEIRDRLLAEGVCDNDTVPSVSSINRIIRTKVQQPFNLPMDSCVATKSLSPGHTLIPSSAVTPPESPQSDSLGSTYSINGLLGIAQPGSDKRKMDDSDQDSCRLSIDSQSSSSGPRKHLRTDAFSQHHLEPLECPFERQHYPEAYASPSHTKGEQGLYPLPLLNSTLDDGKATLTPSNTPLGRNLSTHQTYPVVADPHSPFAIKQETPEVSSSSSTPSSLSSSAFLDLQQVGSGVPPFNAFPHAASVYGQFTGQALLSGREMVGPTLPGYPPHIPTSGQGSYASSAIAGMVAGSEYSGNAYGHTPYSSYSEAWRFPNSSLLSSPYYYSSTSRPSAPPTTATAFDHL
# Sequence of SWI/SNF-related matrix-associated actin-dependent regulator of chromatin subfamily A member 2 (P51531 whole entry): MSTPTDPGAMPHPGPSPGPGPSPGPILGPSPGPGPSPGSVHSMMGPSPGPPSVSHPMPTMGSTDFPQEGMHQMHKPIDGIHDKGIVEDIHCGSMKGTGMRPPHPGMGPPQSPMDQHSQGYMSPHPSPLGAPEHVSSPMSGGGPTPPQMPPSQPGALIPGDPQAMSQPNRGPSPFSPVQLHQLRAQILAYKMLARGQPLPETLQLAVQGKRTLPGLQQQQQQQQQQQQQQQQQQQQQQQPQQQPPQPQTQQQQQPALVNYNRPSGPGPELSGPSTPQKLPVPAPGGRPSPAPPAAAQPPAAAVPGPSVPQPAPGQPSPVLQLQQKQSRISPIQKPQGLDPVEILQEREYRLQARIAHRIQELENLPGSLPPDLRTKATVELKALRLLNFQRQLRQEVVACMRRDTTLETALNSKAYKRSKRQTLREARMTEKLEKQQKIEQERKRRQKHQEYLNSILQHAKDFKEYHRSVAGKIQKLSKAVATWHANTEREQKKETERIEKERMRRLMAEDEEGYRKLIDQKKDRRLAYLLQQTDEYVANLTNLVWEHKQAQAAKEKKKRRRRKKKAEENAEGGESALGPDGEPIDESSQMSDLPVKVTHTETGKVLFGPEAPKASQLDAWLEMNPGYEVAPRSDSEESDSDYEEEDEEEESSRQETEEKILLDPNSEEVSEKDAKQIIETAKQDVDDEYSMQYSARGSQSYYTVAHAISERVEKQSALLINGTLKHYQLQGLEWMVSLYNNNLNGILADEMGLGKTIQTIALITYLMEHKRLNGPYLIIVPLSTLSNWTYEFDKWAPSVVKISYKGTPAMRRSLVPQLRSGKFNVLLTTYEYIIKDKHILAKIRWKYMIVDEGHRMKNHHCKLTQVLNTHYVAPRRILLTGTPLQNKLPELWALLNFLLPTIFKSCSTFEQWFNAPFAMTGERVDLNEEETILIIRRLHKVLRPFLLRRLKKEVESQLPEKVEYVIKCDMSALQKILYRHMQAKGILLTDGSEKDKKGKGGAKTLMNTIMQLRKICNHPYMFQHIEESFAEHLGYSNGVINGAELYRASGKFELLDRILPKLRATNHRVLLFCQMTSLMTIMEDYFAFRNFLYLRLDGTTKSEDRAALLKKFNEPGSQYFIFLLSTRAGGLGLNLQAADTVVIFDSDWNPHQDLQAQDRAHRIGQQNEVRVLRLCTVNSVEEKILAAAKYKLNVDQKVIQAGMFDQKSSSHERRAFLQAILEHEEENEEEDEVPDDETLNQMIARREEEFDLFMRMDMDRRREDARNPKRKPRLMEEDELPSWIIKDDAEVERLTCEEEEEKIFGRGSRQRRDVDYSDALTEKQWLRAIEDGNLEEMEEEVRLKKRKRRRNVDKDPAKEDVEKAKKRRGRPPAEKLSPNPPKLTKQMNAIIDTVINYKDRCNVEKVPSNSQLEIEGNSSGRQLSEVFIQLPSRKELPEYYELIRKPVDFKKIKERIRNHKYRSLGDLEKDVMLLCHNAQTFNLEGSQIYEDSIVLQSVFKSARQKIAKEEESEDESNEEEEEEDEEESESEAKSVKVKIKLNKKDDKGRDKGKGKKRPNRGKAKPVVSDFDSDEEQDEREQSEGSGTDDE
# Sequence of 14-3-3 protein gamma (P61981 whole entry): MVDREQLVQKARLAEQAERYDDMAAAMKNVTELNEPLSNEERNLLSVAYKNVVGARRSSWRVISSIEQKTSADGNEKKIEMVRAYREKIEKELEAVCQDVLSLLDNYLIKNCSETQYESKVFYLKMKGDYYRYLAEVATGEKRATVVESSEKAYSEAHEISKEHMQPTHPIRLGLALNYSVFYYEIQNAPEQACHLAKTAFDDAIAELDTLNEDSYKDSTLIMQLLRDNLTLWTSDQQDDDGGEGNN
smiles,measurement,setting,value
O=Cc1ccc(OC2C=CC(C#Cc3ccccc3)OC2CO)cc1 (configuration not stated),AC50,Cytochrome P450 2C19,0.631 µM (inconclusive)
same,AC50,Cytochrome P450 3A4,3.98 µM (inconclusive)
Cc1sccc1C1C(C#N)=C(N)SC(N)=C1C#N,IC50,Genome polyprotein,> 49.8 µM (not active)
O=C1NC(=S)NC(=O)C1=NNc1ccc(S(=O)(=O)N2CCc3ccccc32)cc1,IC50,[1],62.4 µM (active)
same,IC50,[2],8.57 µM (active)
same,CC50,Vero,> 20 µM (active)
same,EC50,[3],0.62 µM (active)
same,EC50,[4],> 91.2 µM (inactive)
same,EC50,[5],> 91.2 µM (inactive)
Cc1ccc(Cn2ccs/c2=N\C(=O)CCl)cc1,AC50,[6],3.73 µM (active)
same,CC50,[7],0.299 µM (active)
same,IC50,[8],0.744 µM (active)
same,IC50,Jurkat,0.49 µM (active)
same,AC50,Paired box protein Pax-8,1.31 µM (active)
same,IC50,[9],> 80 µM (inactive)
COc1ccc(N2CC(=O)C(c3nc(-c4ccccc4)cs3)=C2N)cc1,IC50,[10],13.4 µM (not active)
same,IC50,[11],24.7 µM (not active)
CN1CCc2c(sc(/N=C/c3ccco3)c2C(N)=O)C1,IC50,14-3-3 protein gamma,> 50 µM (not active)
Cc1sc(NC(=O)CSc2nnc(-c3ccccc3)o2)c(C#N)c1C,IC50,[12],44.8 µM (not active)
Cc1ccccc1Nc1cc2ccccc2c(O)n1,IC50,Bcl-2-related protein A1 [13],> 100 µM (not active)
same,AC50,[14],41.9 µM (inconclusive)
same,IC50,SUMO-activating enzyme [15],1.84 µM (active)
same,IC50,SUMO-activating enzyme [16],4.3 µM (active)
same,Ki,fMet-Leu-Phe receptor,> 66.7 µM (inactive)
same,IC50,Bcl-2-related protein A1 [17],22.4 µM (active)
same,EC50,Protein RecA,0.616 µM (active)
O=C(c1cc(O)c(O)c(O)c1)c1ccc(O)c(O)c1O [EXIFONE],IC50,[18],11.9 µM (inactive)
same,IC50,[19],> 10 µM (inactive)
same,IC50,[20],9.45 µM (inactive)
same,IC50,[21],> 10 µM (inactive)
same,IC50,[22],9.95 µM (inactive)
same,IC50,[23],0.0691 µM (active)
same,IC50,[24],16.3 µM (inactive)
same,IC50,[25],9.38 µM (inactive)
same,IC50,[26],0.192 µM (active)
same,IC50,[27],12.8 µM (inactive)
CCC(=O)Nc1c(C#N)c2nc3ccccc3nc2n1-c1ccc(C)cc1,IC50,[28],> 100 µM (not active)
